What was measured:
[1] = system: meningococcal meningitis; conditions: person
Method: The case patient is person. The patient presenting with pyrexia and disturbance of consciousness was admitted to hospital urgently. […] The patient initiated inhalation, which was performed for one to three hours per day for one month using a hydrogen gas generator “Jobs-α” (a hydrogen concentration, 4% to 6%; generation rate of hydrogen gas, 200 mL/min) manufactured by MiZ Company Limited.

[2] = room temperature, normal pressure; also printed as 1.6 mg/L; cited from earlier work

| SMILES | clinical course ([1]; relapse after ceftriaxone, inhalation one to three hours per day for one month, hydrogen concentration 4% to 6%, 200 mL/min (Jobs-α)) | brain MRI (ventriculitis) ([1]; after hydrogen inhalation one to three hours per day for one month, hydrogen concentration 4% to 6%) | concentration dissolved in water (solubility) [2] | symptoms (pyrexia, disturbance of consciousness) ([1]; administered for 17 days) | course after completion of the administration ([1]; after 17 days of administration) |
| --- | --- | --- | --- | --- | --- |
| [HH] [hydrogen, molecular hydrogen] | began to improve | improvement of ventriculitis | approximately 1.6 ppm |  |  |
| CO/N=C(\C(=O)N[C@@H]1C(=O)N2C(C(=O)O)=C(CSc3nc(=O)c(=O)[nH]n3C)CS[C@H]12)c1csc(N)n1 [Ceftriaxone, reference compound] |  |  |  | resolved symptoms | relapse |

From patent US20210299162A1, “MOLECULAR HYDROGEN-CONTAINING COMPOSITION FOR PREVENTION AND/OR IMPROVEMENT OF ENCEPHALITIS AND/OR MENINGITIS AND SYMPTOM ASSOCIATED WITH THE ENCEPHALITIS AND/OR MENINGITIS” (MiZ Company Limited, priority 2020, published 2021)
